From patent US20070197657A1, “Method for treating non-inflammatory musculoskeletal pain” (SRZ Properties, Inc., priority 2005, published 2007) come the findings set out here.

The test system of test [1] is monosodium iodoacetate-induced mechanical hyperalgesia. The experiment in a line: monosodium iodoacetate-induced mechanical hyperalgesia (Randall-Selitto paw pressure). The settings on record: for mechanical hyperalgesia (paw pressure withdrawal threshold) compared to iodoacetate/vehicle treated animals: day 3; for mechanical hyperalgesia (paw pressure withdrawal threshold): day 7. It counts as in vivo, rat.

Test [2] deals with monosodium iodoacetate-induced tactile allodynia. Kind of test: monosodium iodoacetate-induced tactile allodynia (von Frey filaments). It counts as in vivo, rat.
Test [3] relates to formalin-induced flinching and licking of the affected paw. Kind of test: rat formalin paw test (late phase). It counts as in vivo. As for the experimental part: Rats were given an intraplantar injection of 5% formalin (50 μl) into the posterior left paw. This treatment induces a recognizable flinching and licking response of the affected paw in control animals. The number of flinches was counted for 15 minutes, beginning 20 minutes after injection of formalin. The time spent licking the affected paw was also recorded.
Male Rj: Wistar (Han) rats, 10 per group, weighing 100-130 g at the beginning of the experiments were studied per group. The test was performed blind.
Lacosamide (20 mg/kg), gabapentin (50 and 100 mg/kg), combinations of lacosamide (20 mg/kg) with gabapentin (50 and 100 mg/kg), and vehicle were administered i.p. 10 minutes before injection of formalin.
Lacosamide (10 and 20 mg/kg), morphine (2 and 4 mg/kg), combinations of lacosamide (10 and 20 mg/kg) with morphine (2 and 4 mg/kg), and vehicle were administered i.p. 10 minutes before injection of formalin.
Lacosamide (10 mg/kg), duloxetine (8 mg/kg), a combination of lacosamide (10 mg/kg) with duloxetine (8 mg/kg), and vehicle were administered i.p. 10 minutes before injection of formalin.
Lacosamide (10 and 20 mg/kg), memantine (4 and 8 mg/kg), combinations of lacosamide (10 and 20 mg/kg) with memantine (4 and 8 mg/kg), and vehicle were administered i.p. 10 minutes before injection of formalin.
Lacosamide (10 and 20 mg/kg), naproxen (8 and 16 mg/kg), combinations of lacosamide (10 and 20 mg/kg) with […] (8 and 16 mg/kg), and vehicle were administered i.p. 10 minutes before injection of formalin. Morphine (8 mg/kg) was included as a comparative treatment.

Test [4] has as its system TNF-induced reduction of grip strength. The experiment in a line: biceps muscle grip strength after TNF-induced muscle pain. It counts as in vivo, rat. The settings on record: for reversal of TNF-induced reduction of grip strength: TNF 1 μg i.m. biceps brachii. An excerpt: (§1) The model used in this example is applicable to musculoskeletal pain which occurs in fibromyalgia, myofascial pain syndrome or back pain. For comparative purposes, the non-opioid analgesic dipyrone (metamizol) and the anticonvulsants pregabalin and gabapentin were included in the study.
(§2) Adult male Sprague Dawley rats with a body weight of 250 g to 300 g were used (supplier: Charles River, Sulzfeld, Germany). Animals were group-housed (3 animals per cage) and maintained in a room with controlled temperature (21-22° C.) and a reversed light-dark cycle (12 h/12 h) with food and water available ad libitum. All experiments were approved by the Bavarian State animal experimentation committee and carried out in accordance with its regulations.
(§3) Recombinant rat tumor necrosis factor alpha (herein referred to as TNF) was obtained from R&D Systems, Minneapolis, Minn., U.S.A. TNF was diluted in 0.9% NaCl and used in a concentration of 1 μg in 50 μl. Injections were performed in short halothane narcosis with a 30 g needle bilaterally into the gastrocnemius or into the biceps brachii muscle. All rats were used to the behavioral tests before injections and baseline values were recorded over three test days.
Grip strength of the forelimbs was tested with a digital grip force meter (DFIS series, Chatillon, Greensboro, N.C., U.S.A.). The rat was positioned to grab the grid with the forelimbs and was gently pulled so that the grip strength could be recorded. Means of three trials were calculated. The effect of the TNF treatment was calculated for each animal separately and only animals with a significant TNF effect were included for further analysis.
Rats were injected with TNF into the biceps brachii muscle at 8 am. Six hours later, grip strength of the forelimbs was tested with a digital grip force meter. Test drug was administered, and grip strength was again tested after 30 to 60 minutes.
(§4) The rats, initially 10 per group, were treated with either 3, 10 or 30 mg/kg lacosamide, 2 mg/kg metamizol, 30 or 100 mg/kg pregabalin, 100 mg/kg gabapentin, or the NaCl vehicle, i.p. (intraperitoneally). Volume of i.p. injections was 0.5 ml. A pilot study was performed to confirm that i.m. (intramuscular) injection of 1 μg TNF into the gastrocnemius muscle was sufficient to induce pressure hyperalgesia.
(§5) Data are shown in graphs displaying means and standard errors of the means (SEM). Pre- and post-treatment data were compared using ANOVA (analysis of variance) and a Tukey post hoc test. Means of treatment groups were compared using a one-way ANOVA and Dunnett's post hoc test. Maximal possible effects (MPE) were calculated for all types of treatment.

Test [5] relates to muscle pressure hyperalgesia induced by TNF. The experiment in a line: TNF-induced muscle pressure hyperalgesia (Randall-Selitto, gastrocnemius muscle). The settings on record: for reversal of muscular mechanical hyperalgesia (withdrawal threshold to muscle pressure): TNF 1 μg i.m. gastrocnemius; for full reversal of the muscle hyperalgesia: doses tested (pregabalin 30, 100 mg/kg; gabapentin 100 mg/kg i.p.). The test is classed as in vivo, rat.
Description: as §1, §2, §3
Mechanical withdrawal thresholds to muscle pressure were measured with an analgesimeter (Ugo Basile, Comerio, Italy). The rat was allowed to crawl into a sock which helps the rat to relax. The hind limbs were positioned such that an increasing pressure could be applied onto the gastrocnemius muscle (maximum 250 g). The pressure needed to elicit withdrawal was recorded. Means of 3 trials for each hind limb were calculated (interstimulus interval of >30 sec). Only animals with a significant TNF effect were included for further analysis.
Rats were injected with TNF into the gastrocnemius muscle at 2 pm. Eighteen hours later, rats were tested for pressure hyperalgesia pre- and post-administration of the test drug. Rats were tested for pressure hyperalgesia 30 to 60 minutes after drug administration.
as §4, §5

[6] abbreviates: Example 5, duloxetine 8 mg/kg i.p.
Setting [7] is: 3 mg/kg (lacosamide p.o., morphine s.c.).
[8] abbreviates: Example 4, morphine 2 mg/kg i.p.
[9] abbreviates: Example 4, morphine 4 mg/kg i.p.
Where [10] appears, read: Example 7, morphine 8 mg/kg i.p.
[11] abbreviates: Example 3, gabapentin 50 mg/kg i.p.
Where [12] appears, read: Example 3, gabapentin 100 mg/kg i.p.

“Also recorded” adds a separate entry of the source.

Take `O=C(O)Cc1ccccc1Nc1c(Cl)cccc1Cl` [Diclofenac, diclofenac]: the “mechanical hyperalgesia (paw pressure withdrawal threshold) compared to iodoacetate/vehicle treated animals” value in test [1] (30 mg/kg s.c.) is “increase in paw pressure withdrawal threshold”. In addition, in test [1] (30 mg/kg (lacosamide p.o., diclofenac s.c.)), the “mechanical hyperalgesia (paw pressure withdrawal threshold)” value is recorded as “reduced mechanical hyperalgesia”. Also, the “tactile allodynia of iodoacetate-treated rats” value (from here on “tactile allodynia”) was “no effect” in test [2] (day 3, 30 mg/kg (lacosamide p.o., diclofenac s.c.)); “no effect” in test [2] (day 7, 30 mg/kg (lacosamide p.o., diclofenac s.c.)); “no effect” in test [2] (day 14, 30 mg/kg (lacosamide p.o., diclofenac s.c.)).
Consider `CNCC[C@H](Oc1cccc2ccccc12)c1cccs1` [Duloxetine, duloxetine, reference compound], for which, in test [3] (setting [6]), the “Licking time % change (a): compared with vehicle control” value (“Licking time % change” for short) is given as −26%, the “Licking time (seconds) mean ± SEM” value was 195.5 ± 45.0 s, the “No. of flinches % change (a): compared with vehicle control” value (“No. of flinches % change” below) is −1% and the “No. of flinches mean ± SEM” value amounted to 149.6 ± 27.3. Also, in test [3] (setting [6]), the “effects on number of flinches and time spent licking” value is recorded as “no clear effects”.
For `COc1ccc2cc([C@H](C)C(=O)O)ccc2c1` [Naproxen, naproxen, reference compound], the “effect on the number of flinches or the time spent licking as compared with vehicle controls” value in test [3] (Example 7, naproxen 8 and 16 mg/kg i.p.) is listed as “did not clearly affect”.
Take `Cc1c(N(C)CS(=O)(=O)O)c(=O)n(-c2ccccc2)n1C` [metamizol]: in test [4] (2 mg/kg i.p.), the “MPE (maximal possible effect) on biceps muscle grip strength, versus vehicle” value is listed as “significantly different from vehicle” and the “reversal of TNF-induced reduction of grip strength” value is “significant reversal”. For the same compound, in test [5] (2 mg/kg i.p.), the “MPE (maximal possible effect) on muscle pressure hyperalgesia, versus vehicle” value is recorded as “significantly different from vehicle” and the “reversal of muscular mechanical hyperalgesia (withdrawal threshold to muscle pressure)” value is recorded as “complete reversal”.
For the compound `CC12CC3CC(C)(C1)CC(N)(C3)C2` [Memantine, memantine, reference compound], the “effect on the number of flinches as compared with vehicle controls” value in test [3] (Example 6, memantine 4 and 8 mg/kg i.p.) is recorded as “did not clearly affect”.
For the compound `CN1CC[C@]23c4c5ccc(O)c4O[C@H]2[C@@H](O)C=C[C@H]3[C@H]1C5` [Morphine, morphine, reference compound], in test [1] (setting [7]), the “mechanical hyperalgesia (paw pressure withdrawal threshold) compared to iodoacetate/vehicle treated animals” value is recorded as “increase in paw pressure withdrawal threshold” and the “mechanical hyperalgesia (paw pressure withdrawal threshold)” value was “reduced mechanical hyperalgesia”. For the same compound, in test [3] (setting [8]), the “Licking time % change” value is listed as −1%, the “Licking time (seconds) mean ± SEM” value turned out to be 289.3 ± 30.7 s, the “No. of flinches % change” value is on record as −7% and the “No. of flinches mean ± SEM” value was 139.5 ± 25.3. Besides, in test [3] (setting [9]), the “Licking time % change” value is on record as −20%, the “Licking time (seconds) mean ± SEM” value was determined as 234.9 ± 37.3 s, the “No. of flinches % change” value is recorded as −37% and the “No. of flinches mean ± SEM” value turned out to be 94.3 ± 21.1. Further, in test [3] (Example 4, morphine 2 and 4 mg/kg i.p.), the “effects on the number of flinches and the time spent licking as compared with vehicle controls” value is on record as “did not reach statistical significance”. Also, in test [3] (setting [10]), the “Licking time % change” value is −100%, the “Licking time (seconds) mean ± SEM” value was found to be 0.0 ± 0.0 s, the “No. of flinches % change” value is −100% and the “No. of flinches mean ± SEM” value came to 0.2 ± 0.1. Besides, in test [3] (setting [10]), the “effect on flinching and the time spent licking as compared with vehicle controls” value is reported as “eliminated”. The “tactile allodynia” value in test [2] (day 3, 3 mg/kg s.c.) is reported as “improved”. For the same compound, the “tactile allodynia” value in test [2] (day 7, 3 mg/kg s.c.) is reported as “improved”. Besides, in test [2] (day 14, 3 mg/kg s.c.), the “tactile allodynia” value is reported as “not on day 14”.
On to `NCC1(CC(=O)O)CCCCC1` [Gabapentin, gabapentin, reference compound], for which, in test [3] (setting [11]), the “Licking time % change” value was −28%, the “Licking time (seconds) mean ± SEM” value is 161.0 ± 27.3 s, the “No. of flinches % change” value was −24% and the “No. of flinches mean ± SEM” value is 97.4 ± 23.8. Also, in test [3] (setting [11]), the “decrease in the number of flinches as compared with vehicle controls” value is reported as 24% and the “decrease in the time spent licking as compared with vehicle controls” value is 28%. Also, in test [3] (setting [12]), the “Licking time % change” value is on record as −60%, the “Licking time (seconds) mean ± SEM” value was determined as 90.0 ± 22.5 s, the “No. of flinches % change” value is −31% and the “No. of flinches mean ± SEM” value was found to be 88.1 ± 19.4. Moreover, in test [3] (setting [12]), the “decrease in the number of flinches as compared with vehicle controls” value was 31% and the “decrease in the time spent licking as compared with vehicle controls” value was determined as 60%. In test [4] (100 mg/kg i.p.), the “MPE (maximal possible effect) on biceps muscle grip strength, versus vehicle” value was “significantly different from vehicle”. In addition, in test [4] (100 mg/kg i.p., 100 mg/kg), the “reversal of TNF-induced reduction of grip strength” value is given as “significant reversal; also recorded: improved grip strength”. In test [5] (100 mg/kg i.p.), the “MPE (maximal possible effect) on muscle pressure hyperalgesia, versus vehicle” value was “significantly different from vehicle” and the “reversal of muscular mechanical hyperalgesia (withdrawal threshold to muscle pressure)” value was “significant reversal”. Also, the “full reversal of the muscle hyperalgesia” value in test [5] was “Neither pregabalin nor gabapentin led to a full reversal”.
For `CC(C)C[C@H](CN)CC(=O)O` [pregabalin], in test [4] (100 mg/kg i.p.), the “MPE (maximal possible effect) on biceps muscle grip strength, versus vehicle” value was “significantly different from vehicle”. Further, the “reversal of TNF-induced reduction of grip strength” value in test [4] (100 mg/kg i.p., 100 mg/kg) is reported as “significant reversal; also recorded: improved grip strength”. In addition, in test [5] (30 mg/kg i.p.), the “MPE (maximal possible effect) on muscle pressure hyperalgesia, versus vehicle” value is “significantly different from vehicle” and the “reversal of muscular mechanical hyperalgesia (withdrawal threshold to muscle pressure)” value is “significant reversal”. In test [5] (100 mg/kg i.p.), the “MPE (maximal possible effect) on muscle pressure hyperalgesia, versus vehicle” value was “significantly different from vehicle” and the “reversal of muscular mechanical hyperalgesia (withdrawal threshold to muscle pressure)” value is recorded as “significant reversal”. Further, in test [5], the “full reversal of the muscle hyperalgesia” value was “Neither pregabalin nor gabapentin led to a full reversal”.
